# Measured values taken from US20160108049A1 (TAKEDA Gmbh, priority 2011, published 2016).
# What was measured:
# PDE4B1 = target: T1, PDE4B1 (Homo sapiens, UniProt Q07343); assay: Inhibition of PDE4 activity (PDE4B1, SPA assay); format: biochemical; conditions: recombinant PDE4B1, 0.5 μM cAMP; read-out: PDE4B1 Inhibitory values measured as -logIC50 (converted)
# T1 construct: made in house; host or cells: SF21 insect cells (baculovirus; virus made in SF9 cells, pCR-Bac vector)
# Method: Method for Measuring Inhibition of PDE4 Activity
# The PDE4B1 (GB no. L20966) was a gift of Prof. M. Conti (Stanford University, USA). It was amplified from the original plasmid (pCMV5) via PCR with primers Rb18 (5′-[…]-3′) and Rb10 (5′-[…]-3′) and cloned into the pCR-Bac vector (Invitrogen, Groningen, NL).
# The recombinant baculovirus was prepared by means of homologous recombination in SF9 insect cells. The expression plasmids were cotransfected with Baculo-Gold DNA (Pharmingen, Hamburg) using a standard protocol (Pharmingen, Hamburg). Wt virus-free recombinant virus supernatants were selected using plaque assay methods. After that, high-titre virus supernatants were prepared by amplifying 3 times. PDE4B1 was expressed in SF21 cells by infecting 2×10^6 cells/ml with an MOI (multiplicity of infection) between 1 and 10 in the serum-free SF900 medium (GIBCO Life Technologies, Karlsruhe, Germany) The cells were cultured at 28° C. for 48-72 hours, after which they were pelleted for 5-10 min at 1000×g and 4° C.
# The SF21 insect cells were resuspended, at a concentration of approx. 10^7 cells/ml, in ice-cold (4° C.) homogenization buffer (20 mM Tris, pH 8.2, containing the following additions: 140 mM NaCl, 3.8 mM KCl, 1 mM EGTA, 1 mM MgCl2, 10 mM β-mercaptoethanol, 2 mM benzamidine, 0.4 mM Pefablock, 10 μM leupeptin, 10 μM pepstatin A, 5 μM trypsin inhibitor) and disrupted by ultrasonication. The homogenate was then centrifuged for 10 min at 1000×g and the supernatant was stored at −80° C. until subsequent use (see below). The protein content was determined by the Bradford method (BioRad, Munich) using BSA (Bovine serum albumin) as the standard.
# PDE4B1 activities were measured in a 96-well platform using SPA (scintillation proximity assay) yttrium silicate beads (RPNQ1050 from GE Healthcare). In a first step the PDE activity operated hydrolysis of either [^3H] cAMP (substrate) into […]. In a second step substrate and product were distinguished following addition of SPA yttrium silicate beads. […] Close proximity of bound [^3H] […] The test volume was 100 μl and finally contained 20 mM Tris buffer (pH 7.4), 0.1 mg/ml of BSA, 5 mM Mg^2+, 0.5 μM cAMP (including about 50,000 cpm of [3H]cAMP) as substrate, 1 μl of the respective substance dilution in DMSO and sufficient recombinant PDE (1000×g supernatant, see above) to ensure that 10-20% of the cAMP was converted under the said experimental conditions. […] After a preincubation of 5 min at 37° C., the reaction was commenced by adding the substrate (cAMP) and the assays were incubated for a further 15 min. Reactions were terminated by adding SPA beads (50 μl). In agreement with the manufacturer's instructions, the SPA beads had previously been resuspended in water, but were then diluted 1:3 (v/v) in water. This diluted solution further contained 3 mM IBMX (isobutylmethylxanthine) to ensure a complete block of PDE activity. Once the beads were sedimented (>30 min), the MTP's (micro titerplate) were analyzed in commercially available […]. The corresponding IC50 values of the compounds for inhibition of PDE4B1 activity were determined from the concentration-effect curves by means of non-linear regression.
# (§1) The numbers of the compounds correspond to the numbers of the examples.
# human PDE5 = target: T2, human PDE5 (Homo sapiens, UniProt O76074); assay: Inhibition of PDE5 activity (platelet lysate, SPA assay); format: biochemical; conditions: 0.5 μM cGMP, read-out: PDE5 Inhibitory values measured as -logIC50 (converted)
# T2 construct: from tissue; host or cells: human platelets from fresh donor blood (platelet lysate)
# Method: Method for Measuring Inhibition of PDE5 Activity
# As a source for human PDE5, platelets were used. For that purpose, 150 ml fresh blood from human donors anticoagulated with citrate [final concentration 0.3% (w/v)] was centrifuged at 200 g for 10 min to obtain the so-called platelet-rich-plasma (PRP) as a supernatant. […] After centrifugation (1,400 g, 10 min) the cell pellet was resuspended in 3 ml homogenization buffer (NaCl 140 mM, KCl 3.8 mM, EGTA (ethylene glycol tetraacetic acid) 1 mM, MgCl2 1 mM, Tris-HCl 20 mM, beta-mercaptoethanol 1 mM, pH 8.2) plus protease-inhibitor mix resulting in final concentrations of 0.5 mM Pefablock (Roche), 10 μM Leupeptin, 5 μM Trypsine inhibitor, 2 mM Benzamidin and 10 μM Pepstatin A. The suspension was sonicated and thereafter centrifuged for 15 min at 10,000 g. The resulting supernatant (platelet lysate) was used for enzymatic assays.
# PDE5 activities were measured in a 96-well platform using SPA (scintillation proximity assay) yttrium silicate beads (RPNQ1050 from GE Healthcare). In a first step the PDE activity operated hydrolysis of either [^3H] cGMP (substrate) into [^3H] 5′GMP. In a second step substrate and product were distinguished following addition of SPA yttrium silicate beads. Indeed, in the presence of zinc sulphate the linear [^3H] […] Close proximity of bound [^3H] […] The test volume was 100 μl and contained 20 mM Tris buffer (pH 7.4), 0.1 mg of BSA (bovine serum albumin)/ml, 5 mM Mg^2+, 1 μM motapizone (PDE3 Inhibitor), 10 nM PDE2 inhibitor 2-(3,4-dimethoxybenzyl)-7-[(1R,2R)-2-hydroxy-1-(2-phenylethyl)propyl]-5-methylimidazo[5,1-f][1,2,4]triazin-4(3H)-one, 0.5 μM cGMP (cyclic guanosine monophosphate) (including about 50,000 cpm of [3H]cGMP as a tracer) (substrate), 1 μl of the respective compound dilution in dimethylsulfoxide (DMSO) and sufficient PDE5-containing platelet lysat (10,000×g supernatant, see above) to ensure that 10-20% of the cGMP was converted under the said experimental conditions. […] After a preincubation of 5 min at 37° C., the reaction was commenced by adding the substrate (cGMP) and the assay was incubated for a further 15 min. The reaction was terminated by adding SPA beads (50 μl). In agreement with the manufacturer's instructions, the SPA beads had previously been resuspended in water, but were then diluted 1:3 (v/v) in water. This diluted solution also contained 3 mM 8-methoxymethyl-3-isobutyl-1-methylxanthine (IBMX) to ensure a complete block of PDE activity. Once the beads were sedimented (>30 min), the MTP's were analyzed in commercially available luminescence detection devices. The corresponding IC50 values of the compounds for inhibition of PDE activity were determined from the concentration-effect curves by means of non-linear regression.
# as §1
# T1 sequence (Q07343 whole entry): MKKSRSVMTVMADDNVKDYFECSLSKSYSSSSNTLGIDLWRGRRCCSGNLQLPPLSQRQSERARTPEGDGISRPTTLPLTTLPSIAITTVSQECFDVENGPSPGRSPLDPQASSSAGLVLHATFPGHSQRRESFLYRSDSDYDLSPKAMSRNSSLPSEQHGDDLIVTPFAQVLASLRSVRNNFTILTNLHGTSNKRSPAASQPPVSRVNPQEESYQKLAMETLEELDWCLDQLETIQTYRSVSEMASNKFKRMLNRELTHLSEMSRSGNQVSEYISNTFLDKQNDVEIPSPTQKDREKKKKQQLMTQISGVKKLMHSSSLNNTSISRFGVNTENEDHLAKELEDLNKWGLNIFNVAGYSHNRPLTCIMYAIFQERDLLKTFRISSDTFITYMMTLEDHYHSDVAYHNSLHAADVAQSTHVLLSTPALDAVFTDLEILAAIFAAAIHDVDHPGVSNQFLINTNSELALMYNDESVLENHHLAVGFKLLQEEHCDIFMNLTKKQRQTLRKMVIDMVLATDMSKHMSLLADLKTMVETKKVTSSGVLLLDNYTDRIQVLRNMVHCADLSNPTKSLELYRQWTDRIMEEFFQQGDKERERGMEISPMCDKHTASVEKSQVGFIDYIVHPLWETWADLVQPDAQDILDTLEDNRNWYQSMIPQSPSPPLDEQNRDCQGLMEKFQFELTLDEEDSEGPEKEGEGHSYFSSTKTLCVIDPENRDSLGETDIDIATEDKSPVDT
IC50 (PDE4B1) [nM],IC50 (human PDE5) [nM],SMILES
< 1,< 1,"CCOc1ccc(C[C@@H](NC(=O)c2c[nH]c3c(-c4c(OCC5CC5)ccc5c4OCO5)ncnc23)C(=O)N2CCC(N3N=C(c4ccc(OC)c(OC)c4)[C@H]4CCCC[C@H]4C3=O)CC2)cc1 [Example 9, 4-[5-(cyclopropylmethoxy)-1,3-benzodioxol-4-yl]-N-[(2R)-1-{4-[(4aS,8aR)-4-(3,4-dimethoxyphenyl)-1-oxo-4a,5,6,7,8,8a-hexahydrophthalazin-2(1H)-yl]piperidin-1-yl}-3-(4-ethoxyphenyl)-1-oxopropan-2-yl]-5H-pyrrolo[3,2-d]pyrimidine-7-carboxamide]"
< 1,< 1,"CCOc1ccc(C[C@@H](NC(=O)c2c(C)[nH]c3c(-c4c(OCC5CC5)ccc5c4OCO5)ncnc23)C(=O)N2CCC(N3N=C(c4ccc(OC)c(OC)c4)[C@H]4CCCC[C@H]4C3=O)CC2)cc1 [Example 10, 4-[5-(cyclopropylmethoxy)-1,3-benzodioxol-4-yl]-N-[(2R)-1-{4-[(4aS,8aR)-4-(3,4-dimethoxyphenyl)-1-oxo-4a,5,6,7,8,8a-hexahydrophthalazin-2(1H)-yl]piperidin-1-yl}-3-(4-ethoxyphenyl)-1-oxopropan-2-yl]-6-methyl-5H-pyrrolo[3,2-d]pyrimidine-7-carboxamide]"
< 1,1 to 10,"COc1ccc(C2=NN(C3CCN(C(=O)[C@@H](Cc4ccc(C(N)=O)cc4)NC(=O)c4c(C)[nH]c5c(-c6c(OCC7CC7)ccc7c6OCO7)ncnc45)CC3)C(=O)[C@@H]3CCCC[C@H]23)cc1OC [Example 11, N-[(2R)-3-(4-carbamoylphenyl)-1-{4-[(4aS,8aR)-4-(3,4-dimethoxyphenyl)-1-oxo-4a,5,6,7,8,8a-hexahydrophthalazin-2(1H)-yl]piperidin-1-yl}-1-oxopropan-2-yl]-4-[5-(cyclopropylmethoxy)-1,3-benzodioxol-4-yl]-6-methyl-5H-pyrrolo[3,2-d]pyrimidine-7-carboxamide]"
1 to 10,1 to 10,"COc1ccc(C2=NN(C3CCN(C(=O)[C@@H](Cc4ccc(-c5ccccc5)cc4)NC(=O)c4c(C)[nH]c5c(-c6c(OCC7CC7)ccc7c6OCO7)ncnc45)CC3)C(=O)[C@@H]3CCCC[C@H]23)cc1OC [Example 12, N-[(2R)-3-(biphenyl-4-yl)-1-{4-[(4aS,8aR)-4-(3,4-dimethoxyphenyl)-1-oxo-4a,5,6,7,8,8a-hexahydrophthalazin-2(1H)-yl]piperidin-1-yl}-1-oxopropan-2-yl]-4-[5-(cyclopropylmethoxy)-1,3-benzodioxol-4-yl]-6-methyl-5H-pyrrolo[3,2-d]pyrimidine-7-carboxamide]"
< 1,1 to 10,"COc1ccc(C2=NN(C3CCN(C(=O)[C@@H](Cc4ccc(-c5ccccc5)cc4)NC(=O)c4c[nH]c5c(-c6c(OCC7CC7)ccc7c6OCO7)ncnc45)CC3)C(=O)[C@@H]3CCCC[C@H]23)cc1OC [Example 13, N-[(2R)-3-(biphenyl-4-yl)-1-{4-[(4aS,8aR)-4-(3,4-dimethoxyphenyl)-1-oxo-4a,5,6,7,8,8a-hexahydrophthalazin-2(1H)-yl]piperidin-1-yl}-1-oxopropan-2-yl]-4-[5-(cyclopropylmethoxy)-1,3-benzodioxol-4-yl]-5H-pyrrolo[3,2-d]pyrimidine-7-carboxamide]"
1 to 10,> 10,"COc1ccc(C2=NN(C3CCN(C(=O)[C@@H](Cc4ccc(C#N)cc4)NC(=O)c4c(C)[nH]c5c(-c6c(OCC7CC7)ccc7c6OCO7)ncnc45)CC3)C(=O)[C@@H]3CCCC[C@H]23)cc1OC [Example 14, N-[(2R)-3-(4-cyanophenyl)-1-{4-[(4aS,8aR)-4-(3,4-dimethoxyphenyl)-1-oxo-4a,5,6,7,8,8a-hexahydrophthalazin-2(1H)-yl]piperidin-1-yl}-1-oxopropan-2-yl]-4-[5-(cyclopropylmethoxy)-1,3-benzodioxol-4-yl]-6-methyl-5H-pyrrolo[3,2-d]pyrimidine-7-carboxamide]"
< 1,1 to 10,"COc1ccc(C2=NN(C3CCN(C(=O)[C@@H](Cc4ccc(C)cc4)NC(=O)c4c(C)[nH]c5c(-c6c(OCC7CC7)ccc7c6OCO7)ncnc45)CC3)C(=O)[C@@H]3CCCC[C@H]23)cc1OC [Example 15, 4-[5-(cyclopropylmethoxy)-1,3-benzodioxol-4-yl]-N-[(2R)-1-{4-[(4aS,8aR)-4-(3,4-dimethoxyphenyl)-1-oxo-4a,5,6,7,8,8a-hexahydrophthalazin-2(1H)-yl]piperidin-1-yl}-3-(4-methylphenyl)-1-oxopropan-2-yl]-6-methyl-5H-pyrrolo[3,2-d]pyrimidine-7-carboxamide]"
1 to 10,1 to 10,"COc1ccc(C2=NN(C3CCN(C(=O)[C@@H](Cc4ccc(C#N)cc4)NC(=O)c4c[nH]c5c(-c6c(OCC7CC7)ccc7c6OCO7)ncnc45)CC3)C(=O)[C@@H]3CCCC[C@H]23)cc1OC [Example 16, N-[(2R)-3-(4-cyanophenyl)-1-{4-[(4aS,8aR)-4-(3,4-dimethoxyphenyl)-1-oxo-4a,5,6,7,8,8a-hexahydrophthalazin-2(1H)-yl]piperidin-1-yl}-1-oxopropan-2-yl]-4-[5-(cyclopropylmethoxy)-1,3-benzodioxol-4-yl]-5H-pyrrolo[3,2-d]pyrimidine-7-carboxamide]"
